These results are taken from patent US20240066045A1, “SEMICARBAZONE-BASED SAPONIN CONJUGATE” (priority 2020, published 2024).

Usually IC50 stands for the concentration that inhibits the measured activity by half.

Data set [1] relates to HeLa cells. Description: Cell killing assay (MTS): saponin titrated on fixed non-effective concentration of targeted toxin (endosomal escape enhancing activity). The class given is cell-based. As to conditions: for IC50: read-out: IC50 nM (Activity; + 5 pM EGFdianthin), HeLa cells, + 5 pM EGFdianthin. As for the experimental part:
(§1) Cell viability was determined by an MTS-assay, performed according to the manufacturer's instruction (CellTiter 96® AQueous One Solution Cell Proliferation Assay, Promega). Briefly, the MTS solution was diluted 20× in DMEM without phenol red (PAN-Biotech GmbH) supplemented with 10% FBS (PAN-Biotech GmbH). The cells were washed once with 200 μL PBS per well, after which 100 μL diluted MTS solution was added per well. The plate was incubated for approximately 20-30 minutes at 37° C. Subsequently, the optical density at 492 nm was measured on a Thermo Scientific Multiskan FC plate reader (Thermo Scientific). For quantification the background signal of ‘medium only’ wells was subtracted from all other wells, before the ratio of untreated/treated cells was calculated, by dividing the background corrected signal of untreated wells over the background corrected signal of the treated wells.

Data set [2] concerns A431 cells. The description is as above. The data set is classed as cell-based. As for the experimental part:
as §1

A short description of data set [3]: CMC determination (ANS fluorescence). The data set is classed as physicochemical. As for the experimental part: The critical micellar concentration (CMC) of saponins derived from Saponaria Officinalis (SO) was determined by the method of DeVendittis et al. (www.sciencedirect.com/science/article/pii/0003269781900063, doi.org/10.1016/0003-2697(81)90006-3, Analytical Biochemistry, Volume 115, Issue 2, August 1981, Pages 278-286) as follows: The emission spectrum of 8-Anilinonaphthalene-1-sulfonic acid (ANS) in either purified water (MQ) or PBS (Dulbecco's PBS+/+) was determined at dry weight concentrations of saponins ranging from 1 to 1400 μM to cover the range below and above the CMC. Above the CMC, the fluorescence yield of ANS increases and the wavelength of maximum emission decreases due to portioning of the fluorescent dye into micelles. Fluorescence yields were recorded on a Fluoroskan Ascent FL (Thermo Scientific) at an excitation wavelength of 355 nm, and an emission wavelength of 460 nm. 6 μg at a concentration of 75.86 μM of ANS were used per sample and measurement.

The test system of data set [4] is HeLa cells. Description: Cell toxicity (MTS), saponin alone. The data set is classed as cell-based. As for the experimental part:
as §1

The test system of data set [5] is A431 cells. Description: Cell toxicity (MTS), saponin alone. The data set is classed as cell-based. Here is the method:
as §1

Data set [6] relates to human red blood cells (RBC). Description: Haemolysis assay. The data set is classed as cell-based. As to conditions: fresh human red blood cells. As for the experimental part: Red blood cells (RBCs) were isolated from a buffy coat using a Ficoll gradient. The obtained RBC pellet (˜4-5 ml) was washed 2× with 50 ml DPBS (without Ca^2+/Mg^2+, PAN-Biotech GmbH). Cells were pelleted by centrifugation for 10 min, 800×g at RT. RBC were counted and resuspended at 500.000.000 c/ml in DPBS (without Ca^2+/Mg^2+), based on total cell count. SO1861-linker dilutions were prepared in DPBS (with Ca^2+/Mg^2+, PAN-Biotech GmbH), at 1.11× final strength. For positive lysis control a 0.02% Triton-X100 solution was prepared in DPBS^+/+. Of all compound solutions 135 μl was dispensed/well in a 96 well V-bottom plate. To this 15 μl RBC suspension was added and mixed shortly (10 sec—600 rpm). The plate was incubated 30 min at RT, with gentle agitation. Afterwards the plate was spun for 10 min at 800×g to pellet the RBC and 100-120 μl supernatant was transferred to a standard 96 wp. Subsequently, the OD at 405 nm was measured on a Thermo Scientific Multiskan FC plate reader (Thermo Scientific). For quantification the background signal of ‘DPBS^+/+ only’ wells was subtracted from all other wells before the percentage of hemolysis was calculated in comparison to 0.02% Triton-X100, by dividing the background corrected signal of treated wells over the background corrected signal of the 0.02% Triton-X100 wells (×100).

In a further data set the test system is HSP27 mRNA in A431 cells. Description: HSP27 gene silencing (HSP27 mRNA expression, qPCR). The class given is cell-based. The settings on record: saponin titrated + 50 nM Trastuzumab-HSP27BNA. The text has this:
RNA from cells was isolated and analysed according to standard protocols (Biorad).
In general terms: Quantitative PCR measures a nucleic acid by following its amplification.

Read-outs that look alike come from different tables or passages of the source.

`CC(=O)O[C@H]1[C@H](O[C@@H]2OC[C@@H](O)[C@H](O)[C@H]2O)[C@@H](O)[C@H](O[C@@H]2[C@H](O)[C@@H](O[C@@H]3O[C@@H](C)[C@H](O[C@@H]4OC[C@@H](O)[C@H](O[C@@H]5O[C@H](CO)[C@@H](O)[C@H](O)[C@H]5O)[C@H]4O)[C@@H](O)[C@H]3O)[C@H](OC(=O)[C@]34CCC(C)(C)C[C@H]3C3=CC[C@@H]5[C@@]6(C)CC[C@H](O[C@@H]7O[C@H](C(=O)O)[C@@H](O)[C@H](O[C@@H]8OC[C@@H](O)[C@H](O)[C@H]8O)[C@H]7O[C@@H]7O[C@H](CO)[C@H](O)[C@H](O)[C@H]7O)[C@@](C)(C=O)[C@@H]6CC[C@@]5(C)[C@]3(C)C[C@H]4O)O[C@@H]2C)O[C@@H]1C` [SO1861]: in the data set on HeLa cells [1] (HeLa and A431, + 5 pM EGFdianthin or 10 pM cetuximab-saporin or 50 pM Trastuzumab-saporin), the “activity compared with the SO1861 derivatives” value was “strongest activity”. The IC50 with HeLa cells [1] (Homo sapiens) came out at 500 nM; in the data set on A431 cells [2] (Homo sapiens, A-431, read-out: IC50 nM (Activity; + 5 pM EGFdianthin), + 5 pM EGFdianthin), 300 nM; in the data set with HeLa cells [4] (Homo sapiens), 9 µM; in the data set with A431 cells [5] (Homo sapiens, A-431), 2 µM; in data set [6] (Erythrocyte), 10 µM. Moreover, the CMC in data set [3] is 120 µM.
Consider `CC(=O)OC1C(C)OC(OC2C(C)OC(OC(=O)[C@]34CCC(C)(C)CC3C3=CCC5[C@@]6(C)CC[C@H](OC7OC(C(=O)O)C(O)C(OC8OCC(O)C(O)C8O)C7OC7OC(CO)C(O)C(O)C7O)[C@@](C)(/C=N/NC(=O)CCCCCN7C(=O)C=CC7=O)C6CC[C@@]5(C)[C@]3(C)C[C@H]4O)C(OC3OC(C)C(OC4OCC(O)C(OC5OC(CO)C(O)C(O)C5O)C4O)C(O)C3O)C2O)C(O)C1OC1OCC(O)C(O)C1O` (stereo partly drawn) [SO1861-EMCH], for which the IC50 is 4000 nM with HeLa cells [1]; 2500 nM with A431 cells [2] (+ 50 pM Trastuzumab-saporin, read-out: IC50 cell killing); 3000 nM with A431 cells [2] (read-out: IC50 nM (Activity; + 5 pM EGFdianthin), + 5 pM EGFdianthin); over 100 µM in the data set with HeLa cells [4]; over 30 µM in the data set on A431 cells [5]; over 500 µM in data set [6].
Turning to `CC(=O)OC1C(C)OC(OC2C(C)OC(OC(=O)[C@]34CCC(C)(C)CC3C3=CCC5[C@@]6(C)CC[C@H](OC7OC(C(=O)O)C(O)C(OC8OCC(O)C(O)C8O)C7OC7OC(CO)C(O)C(O)C7O)[C@@](C)(C=NNC(=O)N7CCN(C(=O)CCCCCN8C(=O)C=CC8=O)CC7)C6CC[C@@]5(C)[C@]3(C)C[C@H]4O)C(OC3OC(C)C(OC4OCC(O)C(OC5OC(CO)C(O)C(O)C5O)C4O)C(O)C3O)C2O)C(O)C1OC1OCC(O)C(O)C1O` (stereo partly drawn) [SO1861-SC-Mal], the CMC in data set [3] (listed as SO1861-Semicarbazone Mal) and in data set [3] (listed as SO1861-semicarbazone Mal) was over 800 µM throughout. Further, the IC50 with HSP27 mRNA in A431 cells was 0.6 µM; in the data set on HeLa cells [4], over 100 µM; in data set [6], 250 µM.
